Values joined by “and” are separate entries in the source; they are usually repeats but may differ in a detail not shown here. Equal entries are not always repeated. Where two headings read alike, the source gives them in different places.
Experiments:
[1] = Singlet oxygen (1O2) production rate; format: physicochemical
Text: The production of singlet oxygen (^1O2), cellular phototoxicity and light-independent cytotoxicity (“dark toxicity”) of a number of phyllochlorin analogues were compared against chlorin e4 disodium and Talaporfin sodium (mono-L-aspartyl chlorin e6), the active ingredient of Laserphyrin™.

[2] = test system: SKOV3 ovarian cancer cells; assay: Phototoxicity in SKOV3 cells (652 nm laser, AlamarBlue viability); format: cell-based, Human; settings: for IC50: SKOV3, 652 nm laser, estimated from fitted curves
Description: (§1) Human ovarian cancer cell line SKOV3 (ATCC #HTB-77) was maintained in Dulbecco's Modified Eagle Medium/Nutrient Mixture F-12 (DMEM/F-12), supplemented with 10% v/v Fetal Bovine Serum, 100 U/mL penicillin and 100 µg/mL streptomycin. Monolayer cultures were grown in a humidified incubator at 37° C. with 5% CO2.
(§2) For in vitro experiments, photosensitizers (stock solution 5.5 mM in 100% DMSO) were diluted in cell culture media (Dulbecco's Modified Eagle Medium/Nutrient Mixture F-12) supplemented with 10% v/v Fetal Bovine Serum, 100 U/mL penicillin, 100 µg/mL streptomycin and 10% w/v Kollidon-12. Once cells had reached ˜80% confluence, spent media was replaced with media containing photosensitizer and cells were incubated for the desired period of time to allow photosensitizer uptake.
(§3) SKOV3 cells were seeded in 96-well black wall plates (Greiner #655090) at a cell density of 5000 cells in 100 μl culture medium per well. On reaching ˜60% confluence, so media was aspirated and replaced with fresh media containing the relevant phyllochlorin analogue from 0-100 μM in DMSO. Cells were incubated for a further 24 hours, allowing uptake of phyllochlorin analogues.
(§4) To test for phototoxicity, cells incubated with phyllochlorin analogues (0-10 μM in DMSO) had culture media replaced after 24 hours (as above) and were then exposed to a 652 nm laser (Invion) with laser density at 50 mW/cm^2 for 5 mins (total 15 J/cm^2). Following activation, cells were cultured for a further 24 hours. Media was then replaced with fresh media containing AlamarBlue, and % viable cells remaining assessed as above. Controls included cells treated with phyllochlorin analogues but not activated by laser light; cells without phyllochlorin analogue treatment but with laser light; and untreated controls. All measurements were made in quadruplicate.
(§5) For comparative purposes, phyllochlorin analogues were tested and compared against both chlorin e4 disodium and Talaporfin sodium, a clinically approved photosensitizer used in the photodynamic treatment of lung cancers. Phototoxicity IC90 values and dark toxicity IC10 values were calculated using a log[inhibitor]-vs normalized response dose curve with variable slope, using the formula Y=100/(1+(IC90/X)^HillSlope (phototoxicity IC90) or Y=100/(1+(IC10/X)^HillSlope (dark toxicity IC10).

[3] = test system: SKOV3 ovarian cancer cells; assay: Inherent cytotoxicity (dark toxicity) in SKOV3 cells (AlamarBlue viability); format: cell-based, Human; settings: for Concentration at which cells remained >80% viable (dark toxicity) / Concentration at which cells retained >80% viability (dark toxicity): SKOV3, 24 hours; for Concentration at which cells remained >80% viable (dark toxicity): absence of PVP; for Concentration at which cells retained >80% viability (dark toxicity): with addition of PVP
Description: as §1, §2
as §3, with “confluence,” for “confluence, so”
(§6) To test for inherent cytotoxicity (i.e. “dark toxicity”) of the phyllochlorin analogue the culture media was replaced after 24 hours with fresh media containing 10% (v/v) AlamarBlue Cell Viability Reagent (ThermoFisher) and cells incubated at 37° C. for 6 hours. Untreated cells were used as a control. Fluorescence (Ex 555 nm/Em 596 nm) was measured using a Cytation 3 Multimode Plate Reader (Biotek), and cytotoxicity assessed according to the % viable cells remaining. All measurements were made in quadruplicate.
as §5

[4] = Acute toxicity after intraperitoneal injection; format: in vivo, C57BL/6 mice; settings: 5 mg/kg intraperitoneal, 1% PVP in PBS + 20 mM HEPES, observed 30 mins
Description: To assess acute toxicity, phyllochlorin or chlorin e4 disodium (each prepared with 1% PVP in PBS+20 mM HEPES) were administered at a dose of 5 mg/kg to C57BL/6 mice by intraperitoneal injection.

A549 [5] = assay: Phototoxicity, pan-cancer panel; format: cell-based; settings: Homo sapiens, light or radiation study; A549, lung adenocarcinoma
Description: as §4
(§7) The activity of phyllochlorin analogues against multiple cancer cell types was assessed as above, using compounds 3 and 6 as examples.

CaOV3 [6] = assay: Phototoxicity, pan-cancer panel; format: cell-based; settings: Homo sapiens, Caov-3, light or radiation study; CaOV3, ovarian adenocarcinoma
Description: as §4, §7

DLD-1 [7] = assay: Phototoxicity, pan-cancer panel; format: cell-based; settings: Homo sapiens, light or radiation study; DLD-1, colorectal adenocarcinoma
Description: as §4, §7

HEK293 [8] = assay: Phototoxicity, pan-cancer panel; format: cell-based; settings: Homo sapiens, light or radiation study; HEK293, embryonic kidney
Description: as §4, §7

HH [9] = assay: Phototoxicity, pan-cancer panel; format: cell-based; settings: Homo sapiens, light or radiation study, T cell lymphoma
Description: as §4, §7

LP9 [10] = assay: Phototoxicity, pan-cancer panel; format: cell-based; settings: light or radiation study; LP9, immortalised mesothelial cells
Description: as §4, §7

MDA-MB-468 [11] = assay: Phototoxicity, pan-cancer panel; format: cell-based; settings: Homo sapiens, light or radiation study; MDA-MB-468, breast adenocarcinoma (triple negative)
Description: as §4, §7

OVCAR3 [12] = assay: Phototoxicity, pan-cancer panel; format: cell-based; settings: Homo sapiens, OVCAR-3, light or radiation study; OVCAR3, ovarian adenocarcinoma
Description: as §4, §7

A549 [13] = assay: Cytotoxicity, pan-cancer panel; format: cell-based; settings: A549, lung adenocarcinoma
Description: as §6, §7

CaOV3 [14] = assay: Cytotoxicity, pan-cancer panel; format: cell-based; settings: CaOV3, ovarian adenocarcinoma
Description: as §6, §7

DLD-1 [15] = assay: Cytotoxicity, pan-cancer panel; format: cell-based; settings: DLD-1, colorectal adenocarcinoma
Description: as §6, §7

HEK293 [16] = assay: Cytotoxicity, pan-cancer panel; format: cell-based; settings: HEK293, embryonic kidney
Description: as §6, §7

HH [17] = assay: Cytotoxicity, pan-cancer panel; format: cell-based; settings: T cell lymphoma
Description: as §6, §7

LP9 [18] = assay: Cytotoxicity, pan-cancer panel; format: cell-based; settings: LP9, immortalised mesothelial cells
Description: as §6, §7

MDA-MB-468 [19] = assay: Cytotoxicity, pan-cancer panel; format: cell-based; settings: MDA-MB-468, breast adenocarcinoma (triple negative)
Description: as §6, §7

OVCAR3 [20] = assay: Cytotoxicity, pan-cancer panel; format: cell-based; settings: OVCAR3, ovarian adenocarcinoma
Description: as §6, §7

[21] = Solubility and absorbance maxima (absorbance spectra in DMSO/PBS, with or without PVP); format: physicochemical
Description: Absorbance maxima (660±2 nm for phyllochlorin) were used as a surrogate measure of solubility. The relevant phyllochlorin analogue was diluted to 50 μM in PBS (phosphate buffered saline) solutions containing decreasing amounts of DMSO from 100% to 0%.
Where required, polyvinylpyrrolidone (K30) was added to a final concentration of 1% w/v. Absorbance was measured using a Cytation 3 Multimode Plate Reader (Biotek) in spectral scanning mode, with spectra captured between 500-800 nm in 2 nm increments. Equivalent blank solutions were also measured and subtracted accordingly. Each spectrum was normalized to have a minimum signal of 0, and a maximum signal in pure DMSO solution (the most soluble state) of 100%.
The solubility of phyllochlorin was assessed in solutions containing DMSO as an organic solvent. Phyllochlorin (50 μM final concentration) was resuspended in 100% DMSO to fully dissolve the phyllochlorin. With phyllochlorin concentrations maintained at 50 μM the % DMSO was decreased in a stepwise manner from 100% to 0%. All solutions were mixed by vortexing, then centrifuged for 2 mins to pellet any insoluble material. A 150 μl aliquot was transferred to individual wells of a 96-well clear microplate, and absorbance spectra collected between 500-800 nm in 2 nm increments. Equivalent solutions containing decreasing % DMSO were used to control for background.

[22] = Estimated pKa of the carboxylic acid; format: physicochemical
Text: As PBS buffer (pH 7.4) is used in the experiments and the carboxylic acid in phyllochlorin (and the same carboxy group in other related chlorins) is estimated to have a pKa of less than 5, phyllochlorin in the PBS buffer will exist predominantly as the sodium and potassium salts with very little to no free acid.

[23] = SKOV3, 24 h uptake, 652 nm laser 50 mW/cm2 5 mins (15 J/cm2), viability 24 h later, read-out: Cellular Toxicity: Phototoxicity IC90
[24] = SKOV3, 24 h incubation, no light

SMILES: C=Cc1c(C)c2cc3nc(c(C)c4[nH]c(cc5nc(cc1[nH]2)C(C)=C5CC)c(C)c4C(=O)O)[C@@H](CCC(=O)O)[C@@H]3C [Chlorin e4 disodium, chlorin e4 disodium, reference compound]
- Singlet Oxygen Production (slope) 1O2 [1]: 998.2
- IC50 ([2]; absence of PVP): 4530 nM
- IC50 ([2]; with addition of PVP): 1350 nM
- IC90 [2, 23]: 21300 nM
- Concentration at which cells remained >80% viable (dark toxicity) [3]: up to 80 μM
- Concentration at which cells retained >80% viability (dark toxicity) [3]: 100 µM
- Cellular Toxicity: Dark toxicity IC10 [3, 24]: 40230 nM
- Side effects (clinical signs of acute toxicity) [4]: No side effects were noted

SMILES: C=Cc1c(C)c2cc3nc(c(C)c4cc(C)c(cc5nc(cc1[nH]2)C(C)=C5CC)[nH]4)[C@@H](CCC(=O)NCCCS[C@@H]1O[C@H](CO)[C@@H](O)[C@H](O)[C@H]1O)[C@@H]3C [Compound 3, 3-((7S,8S)-18-ethyl-2,5,8,12,17-pentamethyl-13-vinyl-7H,8H-porphyrin-7-yl)-N-(3-(((2S,3R,4S,5S,6R)-3,4,5-trihydroxy-6-(hydroxymethyl)tetrahydro-2H-pyran-2-yl)thio)propyl)propanamide]
- Singlet Oxygen Production (slope) 1O2 [1]: 2054.0
- IC90 ([2]; Homo sapiens, SK-OV-3, light or radiation study, SKOV3, ovarian clear cell (Table 2), read-out: Phototoxicity IC90): 110 nM
- IC90 ([2]; Homo sapiens, SK-OV-3, light or radiation study, SKOV3, 24 h uptake, 652 nm laser 50 mW/cm2 5 mins (15 J/cm2), viability 24 h later, read-out: Cellular Toxicity: Phototoxicity IC90): 80 nM
- IC90 ([2]; Homo sapiens, SK-OV-3, light or radiation study, SKOV3, read-out: Phototoxicity apparent IC90): < 100 nM
- Cellular Toxicity: Dark toxicity IC10 ([3]; human, 24 h): 20660 nM
- Cytotoxicity IC10 ([3]; human, 24 h): 20660 nM
- IC90 (A549 [5]): 200 nM
- IC90 (CaOV3 [6]): 50 nM
- IC90 (DLD-1 [7]): 360 nM
- IC90 (HEK293 [8]): 220 nM
- IC90 (HH [9]): 110 nM
- IC90 (LP9 [10]): 40 nM
- IC90 (MDA-MB-468 [11]): 70 nM
- IC90 (OVCAR3 [12]): 170 nM
- Cytotoxicity IC10 (A549 [13]): 4220 nM
- Cytotoxicity IC10 (CaOV3 [14]): 5430 nM
- Cytotoxicity IC10 (DLD-1 [15]): 42280 nM
- Cytotoxicity IC10 (HEK293 [16]): 8110 nM
- Cytotoxicity IC10 (HH [17]): 14800 nM
- Cytotoxicity IC10 (LP9 [18]): 18010 nM
- Cytotoxicity IC10 (MDA-MB-468 [19]): 6000 nM
- Cytotoxicity IC10 (OVCAR3 [20]): 29970 nM

SMILES: C=CC1=C(C)c2cc3nc(c(C)c4cc(C)c(cc5[nH]c(cc1n2)c(C)c5CC)[nH]4)[C@@H](CCC(=O)O)[C@@H]3C [Phyllochlorin free acid, phyllochlorin free acid]
- Singlet Oxygen Production (slope) 1O2 [1]: 1335.5
- IC50 ([2]; absence of PVP): 63.1 nM and 60 nM
- IC50 ([2]; with addition of PVP): 53.9 nM
- IC90 [2, 23]: 290 nM
- Times more potent as a phototoxic agent than chlorin e4 disodium salt ([2]; ovarian cancer cells, head to head, without PVP): ~75 times
- Concentration at which cells remained >80% viable (dark toxicity) [3]: 10 µM
- Concentration at which cells retained >80% viability (dark toxicity) [3]: up to 25 μM
- Cellular Toxicity: Dark toxicity IC10 [3, 24]: 13810 nM
- Solubility ([21]; 50 μM, 1% w/v PVP, absorbance as surrogate): remained soluble in aqueous solvent (without DMSO)
- Absorbance maxima ([21]; aqueous solvent, single broad peak): 688±2 nm
- Absorbance maxima ([21]; fully solubilized in organic solvent (75% DMSO and above)): 660±2 nm
- pKa of the carboxylic acid [22]: less than 5
- Side effects (clinical signs of acute toxicity) [4]: No side effects were noted

Source: patent US20230365577A1, “Photodynamic Therapy and Diagnosis” (RMW CHO Group Limited, priority 2020, published 2023)
